In patent US20200299671A1, “IMMOBILIZED MULTI-ENZYMATIC HALOGENATION SYSTEM” (priority 2019, published 2020):

Tests used:
[1] = biological target: PltM (Pseudomonas protegens, UniProt Q4KCZ3); test: Optimized in vitro PltM halogenation assay (PltM, SsuE, GDH), overnight overall yield by HPLC; type: biochemical; conditions: optimized in vitro conditions
Method: To increase production of halogenated molecules and decrease the amount of NADPH required, the above in vitro assay was optimized by using an additional enzyme, glucose dehydrogenase (GDH). […] The overall yield of halogenation products was determined for reactions run overnight for several substrates (Table 8). Conversion of the substrate to halogenated products was monitored by HPLC at λ=275-320 nm, where the absorbance of molecules is not affected by halogenation, and quantified as fraction of reaction species (%).
The time course experiments were performed in duplicate. Compound 1 was unstable under these optimized conditions, and it was not tested. The in vitro analysis of K87A mutant was performed overnight in 100 μL reaction mixture by using the compound 11 as a substrate. Wild-type PltM was used as a positive control, and no enzyme reaction was used as a negative control. In all above reactions, the compounds were extracted with EtOAc (4×100 μL) and dried under gentle air flow.
The halogenation reaction products were analyzed by HPLC or LC-MS by injecting 10 μL of each sample. The compounds were separated by Reversed-phase HPLC at the flow rate of 0.2 mL/min by using the following program: eluent A=H2O; eluent B=MeCN; gradient=2% B for 5 min, increase to 100% B over a 30 min period, stay at 100% B for 9 min, decrease to 2% B over a 1 min period, and re-equilibrate the column at 2% B for 30 min.
For HPLC analysis, the molecules were observed by absorbance at λ=275 nm as described above. As necessary, the following mass spectrometer was operated in negative and positive modes with the following parameters: For negative mode, mass range, 80-600 m/z in profile mode; temperature, 550° C. and ion spray voltage floating, −4500 V, and for positive mode, mass range, 80-600 m/z in profile mode; temperature, 550° C. and ion spray voltage floating, 4500 V. The presence of each compound was analyzed by extracted ion chromatograph (XIC) with the expected mass ±0.05 Da for Assay 1 and Assay 2 and ±0.005 Da for Assay 3 (FIGS. 2A-C, 8-13, and 17-37; Tables 3-4 and 7).

[2] = system: PltM; test: Cell-based activity assay of PltM (Assay 3), wild-type PltM; parameters: species or system E. coli BL21 (DE3); conditions: cells expressing wild-type PltM; 1 added to culture
Method: (§1) E. coli BL21 (DE3) cells were transformed with ppltM-pET28a, ppltMK87A-pET28a, ppltML111Y-pET28a, ppltMS404Y-pET28a, and ppltA-pET28a. The ppltA-pET28a plasmid overexpressing the halogenase PltA whose substrate is pyrrolyl-S-PltL (a peptidyl carrier protein-linked pyrrole) was used as a negative control. Five colonies from each transformant were cultured in 2×500 mL of LB medium (for ppltM-pET28a, ppltML111Y-pET28a, and ppltMS404Y-pET28a) and 1×500 mL of LB medium (for ppltMK87A-pET28a and ppltA-pET28a) with 50 μg/mL kanamycin at 37° C. and 200 rpm until attenuance of 0.2 at 600 nm. The cultures were then moved to 25° C. until attenuance of 0.5. Protein expression was induced by adding 0.2 mM IPTG to all […] flasks, and the cultures were incubated with shaking for 1 h. 12.5 μg/mL of compound 1 was added to 1×500 mL of LB medium containing ppltM-pET28a, ppltMK87A-pET28a, ppltML111Y-pET28a, ppltMS404Y-pET28a, and ppltA-pET28a. Compound 1 was not added to the three remaining flasks (negative controls). After additional incubation for 20 h, the cells were pelleted at 5,000 g for 10 min, and the supernatant was collected. The supernatant was extracted with EtOAc (3×330 mL), which was dried in vacuo. […]
(§2) The halogenation reaction products were analyzed by HPLC or LC-MS by injecting 10 μL of each sample. […]
(§3) For HPLC analysis, the molecules were observed by absorbance at λ=275 nm as described above. […]

[3] = biological target: T1, PltA (Pseudomonas fluorescens, UniProt Q4KCZ0); test: Cell-based activity assay (Assay 3), PltA negative control; parameters: species or system E. coli BL21 (DE3); conditions: cultures expressing PltA (negative control)
T1 construct: expressed in transfected cells; host or cells: E. coli BL21 (DE3)
T1 sequence (Q4KCZ0 whole entry): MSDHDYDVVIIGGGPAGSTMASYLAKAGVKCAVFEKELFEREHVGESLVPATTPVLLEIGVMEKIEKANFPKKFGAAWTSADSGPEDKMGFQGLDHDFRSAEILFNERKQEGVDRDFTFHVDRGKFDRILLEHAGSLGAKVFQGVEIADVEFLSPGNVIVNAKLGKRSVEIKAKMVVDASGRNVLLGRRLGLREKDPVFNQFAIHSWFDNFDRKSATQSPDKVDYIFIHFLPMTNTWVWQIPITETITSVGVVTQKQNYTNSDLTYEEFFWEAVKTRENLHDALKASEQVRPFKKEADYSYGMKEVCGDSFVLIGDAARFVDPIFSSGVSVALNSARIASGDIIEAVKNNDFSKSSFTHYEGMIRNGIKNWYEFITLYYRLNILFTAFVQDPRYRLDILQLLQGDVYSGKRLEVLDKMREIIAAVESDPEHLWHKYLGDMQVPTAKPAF
Method: as §1, §2, §3

Chain of PltM (Pseudomonas protegens, UniProt Q4KCZ3) (Q4KCZ3 entry or part of it): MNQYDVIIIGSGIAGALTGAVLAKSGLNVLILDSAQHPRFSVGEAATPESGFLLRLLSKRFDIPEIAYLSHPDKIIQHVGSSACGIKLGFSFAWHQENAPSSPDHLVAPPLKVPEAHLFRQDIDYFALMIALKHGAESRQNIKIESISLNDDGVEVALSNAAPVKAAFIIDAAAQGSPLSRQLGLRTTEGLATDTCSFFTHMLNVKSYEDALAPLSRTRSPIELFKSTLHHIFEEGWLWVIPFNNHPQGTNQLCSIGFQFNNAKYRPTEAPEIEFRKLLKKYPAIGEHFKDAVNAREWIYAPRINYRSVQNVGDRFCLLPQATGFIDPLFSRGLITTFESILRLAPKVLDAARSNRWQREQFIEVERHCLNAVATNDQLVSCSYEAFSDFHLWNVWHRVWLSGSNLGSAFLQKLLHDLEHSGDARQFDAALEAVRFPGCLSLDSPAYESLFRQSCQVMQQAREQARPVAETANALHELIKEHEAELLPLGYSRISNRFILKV

Oc1cc(O)cc(O)c1 [Compound 1, phloroglucinol]
stability under optimized reaction conditions [1]: unstable
halogenation in fermentation culture [2]: generated mono- and dichlorinated 1
halogenation in fermentation culture [3]: No halogenated product was observed
